Among the data in the supplement of paper PMC10307832 are relative viability values, retold here.

Assay in all cases: relative viability (nuclei count vs DMSO), 5 days (fraction); higher = more cells survive
Compound in assay [1]: C#Cc1cccc(Nc2ncnc3cc(OC)c(OCCCCCCC(=O)NO)cc23)c1 [CUDC-101] + CC(=O)Nc1cccc(-n2c(=O)n(C3CC3)c(=O)c3c(Nc4ccc(I)cc4F)n(C)c(=O)c(C)c32)c1 [Trametinib] (partner 0.02 µM)
In outline: (§1)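 Lung cancer cell lines were seeded in 1536-well plates and dosed by pin tool the next day, with either a single drug or a fixed anchor-drug dose combined with five library-drug doses (not always all listed) spaced in √10 steps. Five days later, one step fixed the cells and stained their nuclei (final 0.05% Triton X-100, 1% formaldehyde, 1 ug/ml Hoechst), and nuclei were counted on 4× images. Relative viability is the nuclei count in treated wells divided by the count in vehicle wells, and each value is the median of duplicate plates.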

Compound in assay [2]: C#Cc1cccc(Nc2ncnc3cc(OC)c(OCCCCCCC(=O)NO)cc23)c1 [CUDC-101] + CC1(C)CCC(c2ccc(Cl)cc2)=C(CN2CCN(c3ccc(C(=O)NS(=O)(=O)c4ccc(N[C@H](CCN5CCOCC5)CSc5ccccc5)c(S(=O)(=O)C(F)(F)F)c4)cc3)CC2)C1 [Navitoclax] (partner 0.5 µM)
In outline: as §1

Compound in assay [3]: COc1cc2/c(=N/c3ccc(Br)cc3F)nc[nH]c2cc1OCC1CCN(C)CC1 [Vandetanib] + Cc1nc(Nc2ncc(C(=O)Nc3c(C)cccc3Cl)s2)cc(N2CCN(CCO)CC2)n1 [Dasatinib] (partner 0.075 µM)
In outline:
as §1

Compound in assay [4]: COc1cc2/c(=N/c3ccc(Br)cc3F)nc[nH]c2cc1OCC1CCN(C)CC1 [Vandetanib] + O=C(c1cc(Cc2n[nH]c(=O)c3ccccc23)ccc1F)N1CCN(C(=O)C2CC2)CC1 [Olaparib] (partner 8 µM)
In outline: as §1

For 201T, the relative viability in assay [1] (first compound 0.01 µM) came out at 0.734; in assay [1] (first compound 0.03162 µM), 0.711; in assay [1] (first compound 0.1 µM), 0.714; in assay [1] (first compound 0.3162 µM), 0.69; in assay [1] (first compound 1 µM) it was 0.701; in assay [2] (first compound 0.01 µM), 1.18. Also, the relative viability in assay [2] (first compound 0.03162 µM) came out at 1.17; in assay [2] (first compound 0.1 µM), 1.16; in assay [2] (first compound 0.3162 µM), 1.2; in assay [2] (first compound 1 µM), 1.21; in assay [3] (first compound 0.02 µM) it was 0.573; in assay [3] (first compound 0.06325 µM), 0.527. For the same cell line, the relative viability in assay [3] (first compound 0.2 µM) worked out at 0.578; in assay [3] (first compound 0.6325 µM), 0.589; in assay [3] (first compound 2 µM), 0.575; in assay [4] (first compound 0.02 µM), 0.79; in assay [4] (first compound 0.06325 µM) it was 0.829; in assay [4] (first compound 0.2 µM), 0.796. The relative viability in assay [4] (first compound 0.6325 µM) amounted to 0.791; in assay [4] (first compound 2 µM), 0.817.

Consider A549, for which the relative viability was found to be 1.34 in assay [2] (first compound 0.01 µM); 1.12 in assay [2] (first compound 0.03162 µM); 1.19 in assay [2] (first compound 0.1 µM); 1.2 in assay [2] (first compound 0.3162 µM); 1.15 in assay [2] (first compound 1 µM); 0.234 in assay [4] (first compound 0.02 µM). Moreover, the relative viability worked out at 0.368 in assay [4] (first compound 0.06325 µM), 0.349 in assay [4] (first compound 0.2 µM), 0.291 in assay [4] (first compound 0.6325 µM) and 0.356 in assay [4] (first compound 2 µM).

With A-427, the relative viability in assay [1] (first compound 0.01 µM) was 0.763; in assay [1] (first compound 0.03162 µM), 0.743; in assay [1] (first compound 0.1 µM), 0.736; in assay [1] (first compound 0.3162 µM) it was 0.733; in assay [1] (first compound 1 µM) it was 0.461; in assay [2] (first compound 0.01 µM), 0.978. Also, the relative viability came out at 0.919 in assay [2] (first compound 0.03162 µM); 0.939 in assay [2] (first compound 0.1 µM); 0.926 in assay [2] (first compound 0.3162 µM); 0.924 in assay [2] (first compound 1 µM); 0.721 in assay [3] (first compound 0.02 µM); 0.697 in assay [3] (first compound 0.06325 µM). In addition, the relative viability in assay [3] (first compound 0.2 µM) was 0.638; in assay [3] (first compound 0.6325 µM), 0.704; in assay [3] (first compound 2 µM) it was 0.702; in assay [4] (first compound 0.02 µM) it was 0.735; in assay [4] (first compound 0.06325 µM) it was 0.852; in assay [4] (first compound 0.2 µM) it was 0.71. Further, the relative viability came to 0.711 in assay [4] (first compound 0.6325 µM) and 0.694 in assay [4] (first compound 2 µM).

For the cell line ABC-1, the relative viability in assay [3] (first compound 0.02 µM) worked out at 0.423; in assay [3] (first compound 0.06325 µM), 0.547; in assay [3] (first compound 0.2 µM), 0.605; in assay [3] (first compound 0.6325 µM), 0.614; in assay [3] (first compound 2 µM), 0.367; in assay [4] (first compound 0.02 µM), 0.538. Also, the relative viability is 0.617 in assay [4] (first compound 0.06325 µM), 0.774 in assay [4] (first compound 0.2 µM), 0.904 in assay [4] (first compound 0.6325 µM) and 0.726 in assay [4] (first compound 2 µM).

Turning to BEN, the relative viability in assay [1] (first compound 0.01 µM) was 1.03; in assay [1] (first compound 0.03162 µM), 0.889; in assay [1] (first compound 0.1 µM) it was 0.895; in assay [1] (first compound 0.3162 µM), 0.972; in assay [1] (first compound 1 µM) it was 0.706; in assay [2] (first compound 0.01 µM) it was 0.0901. Moreover, the relative viability in assay [2] (first compound 0.03162 µM) was 0.0957; in assay [2] (first compound 0.1 µM), 0.427; in assay [2] (first compound 0.3162 µM), 0.137; in assay [2] (first compound 1 µM), 0.0346; in assay [3] (first compound 0.02 µM), 0.309; in assay [3] (first compound 0.06325 µM), 0.331. In addition, the relative viability is 0.271 in assay [3] (first compound 0.2 µM); 0.286 in assay [3] (first compound 0.6325 µM); 0.288 in assay [3] (first compound 2 µM); 1.21 in assay [4] (first compound 0.02 µM); 1.02 in assay [4] (first compound 0.06325 µM); 1.03 in assay [4] (first compound 0.2 µM). Moreover, the relative viability in assay [4] (first compound 0.6325 µM) turned out to be 1.04; in assay [4] (first compound 2 µM), 1.08.

As to CAL-12T, the relative viability turned out to be 0.311 in assay [1] (first compound 0.01 µM); 0.381 in assay [1] (first compound 0.03162 µM); 0.373 in assay [1] (first compound 0.1 µM); 0.41 in assay [1] (first compound 0.3162 µM); 0.335 in assay [1] (first compound 1 µM); 1.22 in assay [2] (first compound 0.01 µM). The relative viability in assay [2] (first compound 0.03162 µM) came out at 1.23; in assay [2] (first compound 0.1 µM), 1.28; in assay [2] (first compound 0.3162 µM) it was 1.35; in assay [2] (first compound 1 µM) it was 1.33; in assay [3] (first compound 0.02 µM), 0.426; in assay [3] (first compound 0.06325 µM) it was 0.407. Besides, the relative viability in assay [3] (first compound 0.2 µM) was determined as 0.387; in assay [3] (first compound 0.6325 µM), 0.29; in assay [3] (first compound 2 µM), 0.32; in assay [4] (first compound 0.02 µM), 0.663; in assay [4] (first compound 0.06325 µM), 0.692; in assay [4] (first compound 0.2 µM), 0.765. Moreover, the results for the relative viability in assay [4] (first compound 0.6325 µM) and in assay [4] (first compound 2 µM) were 0.676 and 0.65, respectively.

On to COR-L23, for which the relative viability in assay [1] (first compound 0.01 µM) came to 0.641; in assay [1] (first compound 0.03162 µM), 0.548; in assay [1] (first compound 0.1 µM), 0.74; in assay [1] (first compound 0.3162 µM) it was 0.574; in assay [1] (first compound 1 µM), 0.332; in assay [2] (first compound 0.01 µM), 1.08. Further, the relative viability in assay [2] (first compound 0.03162 µM) was determined as 1.07; in assay [2] (first compound 0.1 µM), 0.907; in assay [2] (first compound 0.3162 µM), 1.09; in assay [2] (first compound 1 µM), 0.444; in assay [3] (first compound 0.02 µM), 0.485; in assay [3] (first compound 0.06325 µM) it was 0.438. Moreover, the relative viability in assay [3] (first compound 0.2 µM) is 0.462; in assay [3] (first compound 0.6325 µM), 0.446; in assay [3] (first compound 2 µM), 0.564; in assay [4] (first compound 0.02 µM), 0.327; in assay [4] (first compound 0.06325 µM), 0.343; in assay [4] (first compound 0.2 µM) it was 0.379. The results for the relative viability in assay [4] (first compound 0.6325 µM) and in assay [4] (first compound 2 µM) were 0.379 and 0.347, respectively.

In the case of COR-L 105, the relative viability was 0.442 in assay [1] (first compound 0.01 µM); 0.424 in assay [1] (first compound 0.03162 µM); 0.41 in assay [1] (first compound 0.1 µM); 0.452 in assay [1] (first compound 0.3162 µM); 0.311 in assay [1] (first compound 1 µM); 0.866 in assay [2] (first compound 0.01 µM). Besides, the relative viability in assay [2] (first compound 0.03162 µM) amounted to 0.755; in assay [2] (first compound 0.1 µM), 0.739; in assay [2] (first compound 0.3162 µM) it was 0.64; in assay [2] (first compound 1 µM) it was 0.264; in assay [3] (first compound 0.02 µM) it was 0.337; in assay [3] (first compound 0.06325 µM), 0.322. Besides, the relative viability in assay [3] (first compound 0.2 µM) was determined as 0.271; in assay [3] (first compound 0.6325 µM), 0.281; in assay [3] (first compound 2 µM) it was 0.184; in assay [4] (first compound 0.02 µM), 0.639; in assay [4] (first compound 0.06325 µM), 0.606; in assay [4] (first compound 0.2 µM) it was 0.756. The relative viability in assay [4] (first compound 0.6325 µM) worked out at 0.67; in assay [4] (first compound 2 µM) it was 0.811.

On to Calu-6, for which the relative viability is 0.93 in assay [2] (first compound 0.01 µM); 1.1 in assay [2] (first compound 0.03162 µM); 0.848 in assay [2] (first compound 0.1 µM); 0.82 in assay [2] (first compound 0.3162 µM); 0.624 in assay [2] (first compound 1 µM); 0.526 in assay [4] (first compound 0.02 µM). Also, the relative viability in assay [4] (first compound 0.06325 µM) was found to be 0.552; in assay [4] (first compound 0.2 µM) it was 0.579; in assay [4] (first compound 0.6325 µM) it was 0.572; in assay [4] (first compound 2 µM) it was 0.563.
